According to patent US20160235102A1, “SWEETENER COMPOSITION, SWEETENER PRODUCTS, AND METHODS OF SWEETENING” (ALMENDRA AMERICAS, LLC, priority 2013, published 2016):

Test system: trained expert panelists
Test: Sensory formulation study ballot: taste attributes rated on 0-15 scales by trained expert panelists
Format: in vivo, human
Conditions: 0-15 scale, rating defined for panel calibration
Excerpt: Tongue numbing can also manifest itself as “tongue tingling”. These non-sugar-like characteristics appear inter-related in the sense that formulation as well as temperature changes affect the perception of several of them. Another taste characteristic of steviol glycosides, particularly those with relatively low levels of REB A, is soapiness, a characteristic that results from the surfactant portion of the molecule. To quantify all of these sensory effects by existing methods would require an expert sensory panel and at least 4 different sensory tests (i.e., C/R Function Determination, Flavor Profile Analysis, Temporal Profile Analysis and Adaptation Profile Analysis). However, to address a need for rapid screening of HP sweetener formulations, Prakash et al., described a scaling technique to quantify all of these sensory percepts in a single test (reference shown below under the table). An improvement of this methodology is described below.
Prior to the evaluation of test samples, all panelists must first calibrate themselves on Sucrose and Reference Samples (e.g., REB A) to ensure that they are able to appropriately scale taste attributes of interest. These Reference Samples are to be available in ample quantities for all experimental sessions. The Sucrose Reference is 10.0% sucrose acidified with 0.1% citric acid. For illustration purposes, an example of a Reference Sample can be a REB A Reference Sample that has 500 PPM REB A in the same system for general formula optimization studies.
Take a ca. 15 mL sample of the Sucrose Reference into the mouth swishing it around vigorously and note all attributes of the sensory experience. After ca. 10 sec, expectorate the sample and immediately rinse vigorously with ca. 15 mL of water, expectorating the rinse water. Over the next 2 minutes, while minimizing tongue movement in the mouth, pay attention to any rebound or intensification in perceived sweetness, bitterness, or numbing/tingling sensation. The intensity of the attribute perceived at 2 minutes is an estimate of its lingering tendency. Upon completion of calibration with the Sucrose Reference, calibration with the REB A Reference is carried out in the same way. The attribute ratings for the Sucrose and REB A References, all on 0-15 scales, are defined as follows: […]
After completion of reference sample calibrations, as well as in follow up of all sample tests, rinse the mouth vigorously with ca. 15 mL portions of the Sucrose Reference solution and two ca. 15 mL portions of water in effort to get the sensory system back to baseline.
After calibration with the Sucrose Reference and REB A Reference, evaluate all experimental samples by the same protocol, always using the Sucrose Reference and water rinse procedure and ensuring adequate time for the sensory system to return to normal before proceeding with subsequent samples
Taste procedure: the beverages were evaluated in triplicate using the sensory methodology described herein by four trained expert panelists and mean values were used for data analysis.

[1] = 2 minutes after expectoration and rinse, 10.0% sucrose or 500 PPM REB A in 0.1% citric acid
[2] = Sucrose Reference 10.0% sucrose, REB A Reference 500 PPM, both in 0.1% citric acid

C=C1C[C@@]23CC[C@H]4[C@@](C)(CCC[C@@]4(C)C(=O)O[C@@H]4O[C@H](CO)[C@@H](O)[C@H](O)[C@H]4O)[C@@H]2CC[C@]1(O[C@@H]1O[C@H](CO)[C@@H](O)[C@H](O[C@@H]2O[C@H](CO)[C@@H](O)[C@H](O)[C@H]2O)[C@H]1O[C@@H]1O[C@H](CO)[C@@H](O)[C@H](O)[C@H]1O)C3 [REB A100 Reference, rebaudioside A]
Bitterness Intensity @ 2 Min (Bitter2) [1]: 2 | Numbing/Tingling Sensation @ 2 Min (Numb/Ting2) [1]: 2 | Sweetness Intensity @ 2 Min (Sweet2) [1]: 3 | Astringency Intensity (Astring) [2]: 0 | Bitterness Intensity (IB) [2]: 3 | Mouthfeel (Mfeel) [2]: 0 | Numbing/Tingling Sensation (Numb/Ting) [2]: 0 | Soapiness (Soap) [2]: 1 | Sweetness Intensity Initial (Sweetness) [2]: 10 | Sweetness Onset/Appearance Time (Onset) [2]: 3
